From patent US20060069132A1, “Azolecarboxamide herbicides” (priority 2004, published 2006)

Assays:
morningglory [1] = assay: Test A pre-/postemergence herbicide test; format: in vivo, Ipomoea spp.
How it was run: (§1)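 Seeds sown in sandy loam received a preemergence directed soil spray of compound in non-phytotoxic solvent with surfactant; postemergence plants (2–10 cm, one- to two-leaf stage) were sprayed to runoff at the same time. After ~10 days in greenhouse, injury was rated visually versus untreated controls (0 = no effect, 100 = complete control).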

giant foxtail [2] = assay: Test B pre-/postemergence herbicide test; format: in vivo, Setaria faberi; conditions: for Foxtail, Giant plant response rating: postemergence, visual rating, scale 0 (no effect) to 100 (complete control)
How it was run: (§2)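 Visual rating, 0 (no effect) to 100 (complete control), versus untreated controls after 13–15 d in greenhouse. Pre- and postemergence applications (postemergence plants 2–18 cm, 1–4 leaves); flooded paddy arm at 2-leaf stage. Compounds in non-phytotoxic solvent plus surfactant.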

velvetleaf [3] = assay: Test B pre-/postemergence herbicide test; format: in vivo, Abutilon theophrasti; conditions: for Velvetleaf plant response rating: postemergence, visual rating, scale 0 (no effect) to 100 (complete control)
How it was run: as §2

Surinam grass = assay: Test B pre-/postemergence herbicide test; format: in vivo, Urochloa decumbens; conditions: for Surinam Grass plant response rating: postemergence, visual rating, scale 0 (no effect) to 100 (complete control)
How it was run: as §2

large crabgrass [4] = assay: Test B pre-/postemergence herbicide test; format: in vivo, Digitaria sanguinalis; conditions: for Crabgrass, Large plant response rating: postemergence, visual rating, scale 0 (no effect) to 100 (complete control)
How it was run: as §2

wheat = assay: Test B postemergence herbicide test; format: in vivo, Triticum aestivum; design: key to Wheat plant response rating: 0 = no effect, 100 = complete control; conditions: postemergence, visual rating, scale 0 (no effect) to 100 (complete control)
How it was run: (§3)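 Greenhouse test; postemergence application to plants at 1–4 leaves (2–18 cm); paddy species at 2 leaves; evaluated visually vs controls at 13–15 days; scale 0–100 (100 = complete control).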

barnyardgrass [5] = assay: Test B pre-/postemergence herbicide test; format: in vivo, Echinochloa crus-galli; conditions: for Barnyardgrass plant response rating: postemergence, visual rating, scale 0 (no effect) to 100 (complete control)
How it was run: (§4)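 Seeds were planted and treated preemergence with compounds formulated in a non-phytotoxic solvent mixture containing surfactant, while plants at the 1- to 4-leaf stage (2 to 18 cm) received postemergence sprays. Flooded paddy plants were grown to the 2-leaf stage. After 13 to 15 days in a greenhouse, injury was visually rated 0–100 against untreated controls.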

cocklebur = assay: Test B pre-/postemergence herbicide test; format: in vivo, Xanthium strumarium; conditions: for Cocklebur plant response rating: postemergence, visual rating, scale 0 (no effect) to 100 (complete control)
How it was run: as §4

lambsquarters = assay: Test B pre-/postemergence herbicide test; format: in vivo, Chenopodium album; conditions: for Lambsquarters plant response rating: postemergence, visual rating, scale 0 (no effect) to 100 (complete control)
How it was run: as §2

velvetleaf [6] = assay: Test A pre-/postemergence herbicide test; format: in vivo, Abutilon theophrasti
How it was run: as §1

barnyardgrass [7] = assay: Test B flooded paddy test; format: in vivo, Echinochloa crus-galli; conditions: 1000 g ai/ha, visual rating, scale 0 to 100 (0 no effect, 100 complete control), 13 to 15 days
How it was run: (§5)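 Postemergence plants were sprayed with formulated test chemicals at 2 to 18 cm height (1- to 4-leaf stage); paddy species were grown to the 2-leaf stage. After 13 to 15 days in a greenhouse, injury was rated visually against untreated controls on a 0–100 scale (0 = no effect, 100 = complete control).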

ducksalad = assay: Test B flooded paddy test; format: in vivo, Heteranthera limosa; conditions: 1000 g ai/ha, visual rating, scale 0 to 100 (0 no effect, 100 complete control), 13 to 15 days
How it was run: as §5

barnyardgrass [8] = assay: Test A pre-/postemergence herbicide test; format: in vivo, Echinochloa crus-galli
How it was run: as §1

large crabgrass [9] = assay: Test A pre-/postemergence herbicide test; format: in vivo, Digitaria sanguinalis
How it was run: as §1

corn = assay: Test B pre-/postemergence herbicide test; format: in vivo, Zea mays; conditions: for Corn plant response rating: postemergence, visual rating, scale 0 (no effect) to 100 (complete control)
How it was run: as §2

redroot pigweed = assay: Test A pre-/postemergence herbicide test; format: in vivo, Amaranthus retroflexus
How it was run: as §1

[10] = tested on: small flower umbrella sedge; assay: Test B flooded paddy test; format: in vivo, Cyperus difformis; conditions: 1000 g ai/ha, visual rating, scale 0 to 100 (0 no effect, 100 complete control), 13 to 15 days
How it was run: as §5

rice [11] = assay: Test B flooded paddy test; format: in vivo, Oryza sativa; conditions: 1000 g ai/ha, visual rating, scale 0 to 100 (0 no effect, 100 complete control), 13 to 15 days
How it was run: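 Read-out: visual comparison with controls, scored 0 to 100, where 100 means complete control and 0 no effect. Formulated chemicals were applied postemergence to plants 2–18 cm tall (1- to 4-leaf), or to flooded-paddy plants at the 2-leaf stage, then held 13 to 15 days under glass.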

morningglory [12] = assay: Test B pre-/postemergence herbicide test; format: in vivo, Ipomoea coccinea; conditions: for Morningglory plant response rating: postemergence, visual rating, scale 0 (no effect) to 100 (complete control)
How it was run: as §4

rice [13] = assay: Test B pre-/postemergence herbicide test; format: in vivo, Oryza sativa; conditions: preemergence
How it was run: as §2

giant foxtail [14] = assay: Test A pre-/postemergence herbicide test; format: in vivo, Setaria faberi
How it was run: as §1

blackgrass = assay: Test B postemergence herbicide test; format: in vivo, Alopecurus myosuroides; conditions: postemergence, visual rating, scale 0 (no effect) to 100 (complete control)
How it was run: as §5

wild oat = assay: Test B postemergence herbicide test; format: in vivo, Avena fatua; conditions: postemergence, visual rating, scale 0 (no effect) to 100 (complete control)
How it was run: as §3

pigweed = assay: Test B pre-/postemergence herbicide test; format: in vivo, Amaranthus retroflexus; conditions: for Pigweed plant response rating: postemergence, visual rating, scale 0 (no effect) to 100 (complete control)
How it was run: as §2

[15] = Postemergence, 500 g ai/ha, 0 to 100 scale, 0 no effect, 100 complete control
[16] = Postemergence, 2000 g ai/ha, 0 to 100 scale, 0 no effect, 100 complete control
[17] = Preemergence, 2000 g ai/ha, visual rating, 0 to 100 scale (0 no effect, 100 complete control)
[18] = preemergence, 500 g ai/ha, visual injury, 0 to 100 scale (0 no effect, 100 complete control)
[19] = 125 g ai/ha, 0 = no effect, 100 = complete control, preemergence
[20] = 500 g ai/ha, visual rating 0-100, 0 no effect, 100 complete control, preemergence

C#CCNC(=O)c1cccc(NC(=O)c2sc(C(C)(C)C)nc2C)c1 [Compound 203]
90: Pigweed plant response rating (redroot pigweed; [17]) | Pigweed plant response rating (redroot pigweed; [18]) | Plant response rating, Pigweed (pigweed; [20])
15: Morningglory plant response rating (morningglory [1]; [17]) | Velvetleaf plant response rating (velvetleaf [6]; [18]) | Plant response rating, Crabgrass, Large (large crabgrass [9]; [16])
60: Barnyardgrass plant response rating (barnyardgrass [8]; [17])
80: Plant response rating, Crabgrass, Large (large crabgrass [4]; [20]) | Plant response rating, Pigweed (redroot pigweed; [16])
10: Morningglory plant response rating (morningglory [1]; [18]) | Plant response rating, Foxtail, Giant (giant foxtail [2]; [20]) | Foxtail, Giant plant response rating (giant foxtail [2]; 500 g ai/ha) | Velvetleaf plant response rating (velvetleaf [3]; 500 g ai/ha) | Surinam Grass plant response rating (Surinam grass; 125 g ai/ha) | Crabgrass, Large plant response rating (large crabgrass [4]; 500 g ai/ha) | Plant response rating, Barnyardgrass (barnyardgrass [5]; [20]) | Plant response rating, Cocklebur (cocklebur; [20]) | Cocklebur plant response rating (cocklebur; 500 g ai/ha) | Lambsquarters plant response rating (0 to 100 scale) (lambsquarters; [19]) | Lambsquarters plant response rating (lambsquarters; 125 g ai/ha) | Velvetleaf plant response rating (velvetleaf [6]; [15]) | Plant response rating, Velvetleaf (velvetleaf [6]; [16]) | Barnyardgrass plant response rating (barnyardgrass [8]; [15]) | Barnyardgrass plant response rating (barnyardgrass [8]; [18]) | Crabgrass, Large plant response rating (large crabgrass [9]; [15]) | Corn plant response rating (corn; 500 g ai/ha) | Plant response rating, Morningglory (morningglory [12]; [20]) | Foxtail, Giant plant response rating (giant foxtail [14]; [15]) | Oat, Wild plant response rating (wild oat; 500 g ai/ha) | Pigweed plant response rating (0 to 100 scale) (pigweed; [19]) | Pigweed plant response rating (pigweed; 500 g ai/ha)
55: Plant response rating, Morningglory (morningglory [1]; [16])
30: Crabgrass, Large plant response rating (0 to 100 scale) (large crabgrass [4]; [19]) | Plant response rating, Lambsquarters (lambsquarters; [20]) | Plant response rating, Barnyardgrass (barnyardgrass [8]; [16]) | Morningglory plant response rating (morningglory [12]; 500 g ai/ha) | Foxtail, Giant plant response rating (giant foxtail [14]; [18])
50: Morningglory plant response rating (morningglory [1]; [15]) | Lambsquarters plant response rating (lambsquarters; 500 g ai/ha) | Crabgrass, Large plant response rating (large crabgrass [9]; [18])
20: Plant response rating, Velvetleaf (velvetleaf [3]; [20]) | Surinam Grass plant response rating (Surinam grass; 500 g ai/ha) | Plant response rating, Foxtail, Giant (giant foxtail [14]; [16])
75: Crabgrass, Large plant response rating (large crabgrass [9]; [17]) | Foxtail, Giant plant response rating (giant foxtail [14]; [17])
35: Velvetleaf plant response rating (velvetleaf [6]; [17]) | Pigweed plant response rating (redroot pigweed; [15])
0: Foxtail, Giant plant response rating (0 to 100 scale) (giant foxtail [2]; [19]) | Foxtail, Giant plant response rating (giant foxtail [2]; 125 g ai/ha) | Velvetleaf plant response rating (0 to 100 scale) (velvetleaf [3]; [19]) | Velvetleaf plant response rating (velvetleaf [3]; 125 g ai/ha) | Surinam Grass plant response rating (0 to 100 scale) (Surinam grass; [19]) | Plant response rating, Surinam Grass (Surinam grass; [20]) | Crabgrass, Large plant response rating (large crabgrass [4]; 125 g ai/ha) | Wheat plant response rating (wheat; 125 g ai/ha) | Wheat plant response rating (wheat; 500 g ai/ha) | Barnyardgrass plant response rating (0 to 100 scale) (barnyardgrass [5]; [19]) | Barnyardgrass plant response rating (barnyardgrass [5]; 125 g ai/ha) | Barnyardgrass plant response rating (barnyardgrass [5]; 500 g ai/ha) | Cocklebur plant response rating (0 to 100 scale) (cocklebur; [19]) | Cocklebur plant response rating (cocklebur; 125 g ai/ha) | Barnyardgrass plant response rating (barnyardgrass [7]) | Ducksalad plant response rating (ducksalad) | Corn plant response rating (0 to 100 scale) (corn; [19]) | Plant response rating, Corn (corn; [20]) | Corn plant response rating (corn; 125 g ai/ha) | Sedge, Umbrella plant response rating [10] | Rice plant response rating (rice [11]) | Morningglory plant response rating (0 to 100 scale) (morningglory [12]; [19]) | Morningglory plant response rating (morningglory [12]; 125 g ai/ha) | Rice plant response rating (0 to 100 scale) (rice [13]; 125 g ai/ha, 0 = no effect, 100 = complete control) | Plant response rating, Rice (rice [13]; 500 g ai/ha, visual rating 0-100, 0 no effect, 100 complete control) | Blackgrass plant response rating (blackgrass; 125 g ai/ha) | Blackgrass plant response rating (blackgrass; 500 g ai/ha) | Oat, Wild plant response rating (wild oat; 125 g ai/ha) | Pigweed plant response rating (pigweed; 125 g ai/ha)
